Measured values reported in patent US20220017491A1, “COMPOUND INHIBITING YAP-TEAD BINDING, AND PHARMACEUTICAL COMPOSITION FOR PREVENTING OR TREATING CANCER, COMPRISING COMPOUND AS ACTIVE INGREDIENT” (KOREA RESEARCH INSTITUTE OF CHEMICAL TECHNOLOGY, priority 2018, published 2022).

Tested on: YAP-TEAD
Test: Luciferase assay of YAP-TEAD binding inhibition (TEAD luciferase reporter 8XGTIIC in HEK293T cells)
Type: cell-based
Settings: 10 μM, 24 hours, luciferase normalized with β-galactosidase
Procedure: A Luciferase assay which allows an inhibition degree of YAP-TEAD, previously reported in Cancers 2018, 10(5), 140, was used to measure an in vitro binding inhibition rate of YAP-TEAD.
HEK293T cells were purchased from American Type Culture Collection and incubated in DMEM media containing 10% FBS, L-glutamine, and penicillin/streptomycin. The HEK293T cells were seeded in a 24 well plate at a density of 1×10^5, and coated with polyethyleneamine (10 μg/mL). These cells were transfected with 8XGTIIC-luciferase (Addgene reference 34615) which is TEAD luciferase reporter plasmid and control β-galactosidase plasmid CMV-β-Gal using a lipofectamine 2000 reagent (Life Technologies, Inc.) according to the manufacturer's manual. Thereafter, the compound of the present invention was treated at a concentration of 10 μM for 24 hours, the cells were lysed using a Reporter lysis buffer (Promega, France), luciferase activity was read with a Mithras LB940 plate reader, and then normalization was performed with β-galactosidase.

| SMILES | Inhibition(%) |
| --- | --- |
| O=C(Nc1ccc2c3c(cccc13)C(=O)N2Cc1ccccc1)C1CCCN1S(=O)(=O)c1cccs1 (stereo not shown) [Compound 3] | 63% |
| O=C(Nc1ccc2c3c(cccc13)C(=O)N2CCc1c[nH]c2ccccc12)C1CCCCN1S(=O)(=O)c1cccs1 (stereo not shown) [Compound 13] | 50% |
| COc1ccc(CCN2C(=O)c3cccc4c(NC(=O)C5CCC(NS(=O)(=O)c6cccs6)CC5)ccc2c34)cc1 (stereo not shown) [Compound 22] | 78% |
| COc1ccc(CCN2C(=O)c3cccc4c(NC(=O)C5CCCN(S(=O)(=O)c6cccs6)C5)ccc2c34)cc1 (stereo not shown) [Compound 24] | 61% |
| COc1ccc(CCN2C(=O)c3cccc4c(NC(=O)[C@H]5CC[C@H](NS(=O)(=O)c6cccs6)CC5)ccc2c34)cc1 [Compound 25] | 61% |
| O=C(Nc1ccc2c3c(cccc13)C(=O)N2CCc1ccc(Cl)cc1Cl)C1CCCCN1S(=O)(=O)c1cccs1 (stereo not shown) [Compound 26] | 100% |
| COCCCN1C(=O)c2cccc3c(NC(=O)C4CCCN(S(=O)(=O)c5cccs5)C4)ccc1c23 (stereo not shown) [Compound 28] | 81% |
| COCCCN1C(=O)c2cccc3c(NC(=O)C4CCCN(S(=O)(=O)c5c(C)noc5C)C4)ccc1c23 (stereo not shown) [Compound 35] | 56% |
| COCCCN1C(=O)c2cccc3c(NC(=O)C4CCCN(S(=O)(=O)c5c(C)n[nH]c5C)C4)ccc1c23 (stereo not shown) [Compound 36] | 54% |
| COCCCN1C(=O)c2cccc3c(NC(=O)C4CCCN(S(=O)(=O)c5sc6ccc(Cl)cc6c5C)C4)ccc1c23 (stereo not shown) [Compound 48] | 58% |
| COCCCN1C(=O)c2cccc3c(NC(=O)C4CCCN(S(=O)(=O)c5ccc6c(c5)OCCO6)C4)ccc1c23 (stereo not shown) [Compound 49] | 51% |
| COCCCN1C(=O)c2cccc3c(NC(=O)C4CCCN(S(=O)(=O)c5c(C)c(C)c6c(c5C)CC(C)(C)O6)C4)ccc1c23 (stereo not shown) [Compound 50] | 63% |
| COCCCN1C(=O)c2cccc3c(NC(=O)C4CCCN(S(=O)(=O)c5ccc6c7c(cccc57)C(=O)N6)C4)ccc1c23 (stereo not shown) [Compound 55] | 50% |
| COCCCN1C(=O)c2cccc3c(NC(=O)C4CCCN(S(=O)(=O)c5cc(Cl)sc5Cl)C4)ccc1c23 (stereo not shown) [Compound 71] | 91% |
| COCCCN1C(=O)c2cccc3c(NC(=O)C4CCCN(S(=O)(=O)c5csc6ccccc56)C4)ccc1c23 (stereo not shown) [Compound 76] | 87% |
| CS(=O)(=O)N1CCC(CCN2C(=O)c3cccc4c(NC(=O)C5CCCCN5S(=O)(=O)c5cccs5)ccc2c34)CC1 (stereo not shown) [Compound 106] | 99.2% |
| COCCCN1C(=O)c2cccc3c(NC(=O)C4CCCN(S(=O)(=O)c5ccc(-c6ccccn6)s5)C4)ccc1c23 (stereo not shown) [Compound 119] | 68% |
| COCCCN1C(=O)c2cccc3c(NC(=O)C4CCCN(S(=O)(=O)c5ccc(OCCN(C)C)c(C)c5)C4)ccc1c23 (stereo not shown) [Compound 123] | 54% |
| CS(=O)(=O)N1CCC(CCN2C(=O)c3cccc4c(NC(=O)C5CCCN(S(=O)(=O)c6cccs6)C5)ccc2c34)CC1 (stereo not shown) [Compound 131] | 78% |
| CS(=O)(=O)N1CCC(CCN2C(=O)c3cccc4c(NC(=O)C5CCCCN5S(=O)(=O)c5ccc6c(c5)CCO6)ccc2c34)CC1 (stereo not shown) [Compound 133] | 59% |
| CS(=O)(=O)N1CCC(CCN2C(=O)c3cccc4c(NC(=O)C5CCCCN5S(=O)(=O)c5ccc6c(c5)OCCO6)ccc2c34)CC1 (stereo not shown) [Compound 134] | 62% |
| CS(=O)(=O)N1CCC(CCN2C(=O)c3cccc4c(NC(=O)C5CCCN(S(=O)(=O)c6ccco6)C5)ccc2c34)CC1 (stereo not shown) [Compound 136] | 80% |
| COCCCN1C(=O)c2cccc3c(NC(=O)C4CCCN(S(=O)(=O)c5ccccc5)C4)ccc1c23 (stereo not shown) [Compound 137] | 87% |
| COCCCN1C(=O)c2cccc3c(NC(=O)C4CCCCN4S(=O)(=O)c4ccccc4)ccc1c23 (stereo not shown) [Compound 138] | 79% |
| CS(=O)(=O)N1CCC(CCN2C(=O)c3cccc4c(NC(=O)C5CCCCN5S(=O)(=O)c5ccco5)ccc2c34)CC1 (stereo not shown) [Compound 139] | 98% |
